Laboratory results taken from publication PMC4767442 (Oncotarget, 2015).

What was measured:
[1] = test system: cancer cell lines (HL-60, MCF-7 and HCT116); assay: MTT assay, cancer cell lines as a group; assay type: cell-based; settings: Homo sapiens, HL-60, MCF-7, HCT116, 72 h/37°C, read-out: IC50 against cancer cells (range over cell lines)
Description: (§1) The MCF-7 human breast adenocarcinoma cell line was purchased from the European Collection of Cell Cultures (U.K.). The HL-60 human promyelocytic leukemia cell line, HCT116 human colorectal carcinoma cell line, H9c2 rat heart-derived myoblast cell line and 3T3 mouse embryo fibroblast line, were obtained from the American Type Culture Collection (VA, U.S.A.). Cells were cultured in Dulbecco's modified Eagle's medium (DMEM, Lonza, Switzerland) with or without (for MCF-7 cells only) phenol red, supplemented with 10% heat-inactivated fetal bovine serum (FBS; Lonza, Switzerland), 1% penicillin/streptomycin solution (Lonza, Switzerland) and 10 mM HEPES buffer (pH 7.0-7.6; Sigma-Aldrich, Germany). The HL-60 cell line was maintained in RPMI medium (Sigma-Aldrich, Germany) supplemented with 10% heat-inactivated FBS and 1% penicillin/streptomycin solution. All cell lines were cultured in 75 cm^2 tissue culture flasks (Switzerland) at 37°C in a humidified atmosphere of 5% CO2. Sub-confluent cells or, in the case of HL-60 cells, a cell suspension, were sub-cultured every 3-4 days.
(§2) Cells were seeded in 96-well plates for 24 h/37°C at a density of 5,000 (MCF-7), 10,000 (HL-60), 2,000 (HCT116) and 10,000 (3T3 and H9c2) cells/well. For 3T3 and H9c2 cells, the medium was changed to serum- and pyruvate-free DMEM 24 h prior to the experiments. Anti-proliferative and cytotoxicity effects of the compounds were studied at different concentrations after incubations for 72 h/37°C. Viabilities of cells were determined using MTT assays (Sigma-Aldrich, Germany) according to the manufacturer's instructions on a Tecan Infinite 200M plate reader (Tecan, Austria). The proliferation/viability of treated groups was expressed as a percentage of the untreated controls (100%).

[2] = test system: cellular labile iron pools; assay: Fluorimetric calcein-AM assay of intracellular iron chelation; assay type: cell-based; settings: 10 μmol·L^−1
Description: Iron chelation efficiency of the compounds at a concentration of 10 μmol·L^−1 was determined via 3 methods: (1) the calcein assay; (2) the ability of the ligands to induce ^59Fe mobilization from cells prelabeled with ^59Fe-transferrin; and (3) the efficacy of these agents to inhibit the uptake of ^59Fe from ^59Fe-transferrin [22, 38–40].
The fluorimetric calcein-AM assay was performed by established methods, as described previously. The Fe chelation efficiency of the metabolites in cells was expressed as a percentage of that of the parent chelator, Dp44mT or DpC (100%). For studies assessing the ability of these agents to induce ^59Fe mobilization and inhibit ^59Fe uptake from ^59Fe-transferrin by cells, human transferrin (Sigma-Aldrich, Germany) was labeled with ^59Fe (PerkinElmer, MA, USA) to generate ^59Fe-transferrin at a final specific activity of 500 pCi/pmol Fe, as previously described. The unbound ^59Fe was removed by exhaustive vacuum dialysis against a large excess of 0.15 M NaCl buffered to pH 7.4 with 1.4% NaHCO3 by standard methods.

[3] = test system: 3T3 mouse embryo fibroblast line; assay: MTT proliferation/viability assay, 3T3; assay type: cell-based; settings: 72 h/37°C, mean ± S.D., serum- and pyruvate-free DMEM
Description: as §1, §2

[4] = parameters: method as in earlier work; settings: chronically repeated dosing at high non-optimal levels (Dp44mT, mice, ref 1); DpC at markedly higher doses; cited from earlier work
[5] = test system: HL-60 human promyelocytic leukemia cell line; assay: MTT proliferation/viability assay, HL-60; assay type: cell-based; settings: 72 h/37°C, mean ± S.D.
Description: as §1, §2

[6] = test system: HCT116 human colorectal carcinoma cell line; assay: MTT proliferation/viability assay, HCT116; assay type: cell-based; settings: HCT-116, 72 h/37°C, mean ± S.D.
Description: as §1, §2

[7] = test system: H9c2 rat heart-derived myoblast cell line; assay: MTT proliferation/viability assay, H9c2; assay type: cell-based; settings: 72 h/37°C, mean ± S.D., serum- and pyruvate-free DMEM
Description: as §1, §2

[8] = test system: H9c2 heart-derived myoblasts; assay: In-vitro metabolism of the drugs in H9c2 cells (HPLC-MS); assay type: in vitro ADME, rat; settings: H9c2, 10 μmol·L^−1, 12 h, 37°C
Description: Breast cancer cells (MCF-7) and H9c2 heart-derived myoblasts were seeded in 100-mm Petri dishes (1,000,000 cells/dish) for 24 h/37°C. Freshly prepared stock solutions of Dp44mT and DpC in DMSO (Sigma-Aldrich, Germany) were diluted in culture medium to the required working concentration.
The cells were incubated for 12 h (37°C) with either Dp44mT or DpC at a concentration of 10 μmol·L^−1. After this incubation, the cells were harvested, washed twice with ice-cold PBS buffer, centrifuged (790 x g) and precipitated with acetonitrile (200 μL/10^6 cells) prior to the analysis. The overlaying medium was also analyzed to search for possible metabolites. […] All samples were analyzed using HPLC-MS as described below in the Section: HPLC-MS method to identify metabolites of the drugs.
To search for the metabolites, plasma was precipitated with methanol or acetonitrile (plasma/solvent ratio – 1:3, v/v), treated using solid phase extraction (SPE; Discovery DSC-PH, Supelco, PA, U.S.A.), or liquid-liquid extraction with various solvents (ethyl acetate, toluene, dichloromethane). […] These samples were then analyzed using HPLC-MS with ion trap mass analyzer implementing the settings described previously with minor modifications (for details of the analyses see Supplementary Material, part 2.1). […]

[9] = test system: MCF-7 human breast adenocarcinoma cell line; assay: MTT proliferation/viability assay, MCF-7; assay type: cell-based; settings: MCF7, 72 h/37°C, mean ± S.D.
Description: as §1, §2

[10] = Post-preparative stability in the autosampler at 10°C; assay type: physicochemical; settings: for decomposition on storage (in words): 24 h storage in the autosampler at 10°C; for Post-preparative stability: autosampler 10°C, 24 h
Description: The UHPLC-MS/MS methods for quantitative assays were validated with respect to selectivity, linearity, precision, accuracy, stability, recovery, matrix effects and dilution integrity (see […]
Supplementary Table 1-3). […]
Stability was assessed at low, medium and high concentration levels. Long -term stability was assessed for plasma samples at -80°C over a period of 7 days (three aliquots per level; Supplementary Table 3). […]

[11] = high concentration level (2.105-3.115 µmol·L-1)
[12] = low concentration level (0.035-0.156 µmol·L-1)
[13] = medium concentration level (0.702-1.558 µmol·L-1)

SMILES | IC50 [1] [nM] | intracellular Fe chelation efficacy (in words) [2] | IC50 [3] [nM] | cardiac fibrosis [4] | IC50 [5] [nM] | IC50 [6] [nM] | IC50 [7] [nM] | metabolism in heart-derived myoblasts [8] | IC50 [9] [nM] | decomposition on storage (in words) [10] | Post-preparative stability [10, 11] [%] | Post-preparative stability [10, 12] [%] | Post-preparative stability [10, 13] [%]
CN(C(=S)NN=C(c1ccccn1)c1ccccn1)C1CCCCC1 [DpC, di(2-pyridyl)ketone 4-cyclohexyl-4-methyl-3-thiosemicarbazone] | 3 to 5 | comparable to Dp44mT | 412 ± 177 | does not induce cardiac fibrosis | 3 ± 1 | 5 ± 1 | 85 ± 13 | do not undergo significant metabolism | 3 ± 1 | No significant decomposition | 107.34 | 97.48 | 95.68
CN(C)C(=S)NN=C(c1ccccn1)c1ccccn1 [Dp44mT, di(2-pyridyl)ketone 4,4-dimethyl-3-thiosemicarbazone] | 2 to 9 | high intracellular chelation efficacy | 157 ± 51 | cardiac fibrosis was demonstrated | 2 | 6 ± 1 | 124 ± 49 | do not undergo significant metabolism | 9 ± 2 | No significant decomposition | 98.90 | 93.70 | 95.92
